ChEMBL document CHEMBL4177616, “Potent anti-melanogenic activity and favorable toxicity profile of selected 4-phenyl hydroxycoumarins in the zebrafish model and the computational molecular modeling studies” (Bioorg Med Chem, 2017)
Calls of active or inactive are those of the source. The calls are words filed in the database; no cut-off is given here.

Assays:
[1] = test system: Neutrophil; experiment: Cytotoxicity against mpx:GFP transgenic zebrafish 24 hrs post fertilization embryo neutrophils assessed as loss in neutrophil at 25 ug/ml relative to control; type: cell-based, Danio rerio
[2] = test system: Danio rerio; experiment: Toxicity in wild type zebrafish embryos assessed as pericardial edema at 25 ug/ml treated for 96 hrs post fertilization starting from 6 hrs post fertilization by inverted microscopic analysis relative to control; type: organism-based; details: in vivo
[3] = species: Danio rerio; experiment: Toxicity in wild type zebrafish embryos assessed as normal embryo at 20 ug/ml treated for 96 hrs post fertilization starting from 6 hrs post fertilization by inverted microscopic analysis relative to control; type: organism-based; details: in vivo
[4] = test system: Danio rerio; experiment: Toxicity in wild type zebrafish embryos assessed as pericardial edema at 20 ug/ml treated for 96 hrs post fertilization starting from 6 hrs post fertilization by inverted microscopic analysis relative to control; type: organism-based; details: in vivo
[5] = species: Danio rerio; experiment: Toxicity in wild type zebrafish embryos assessed as blood circulation at 50 ug/ml treated for 96 hrs post fertilization starting from 6 hrs post fertilization by inverted microscopic analysis relative to control; type: organism-based; details: in vivo
[6] = Toxicity in wild type zebrafish embryos assessed as dead embryo at 15 ug/ml treated for 96 hrs post fertilization starting from 6 hrs post fertilization by inverted microscopic analysis relative to control; type: organism-based, Danio rerio; details: in vivo, read-out: Activity
[7] = species: Danio rerio; experiment: Toxicity in wild type zebrafish embryos assessed as skeletal deformities at 10 ug/ml treated for 96 hrs post fertilization starting from 6 hrs post fertilization by inverted microscopic analysis relative to control; type: organism-based; details: in vivo
[8] = species: Danio rerio; experiment: Toxicity in wild type zebrafish embryos assessed as normal embryo at 25 ug/ml treated for 96 hrs post fertilization starting from 6 hrs post fertilization by inverted microscopic analysis relative to control; type: organism-based; details: in vivo
[9] = species: Danio rerio; experiment: Toxicity in wild type zebrafish embryos assessed as unhatched embryo at 10 ug/ml treated for 96 hrs post fertilization starting from 6 hrs post fertilization by inverted microscopic analysis relative to control; type: organism-based; details: in vivo
[10] = species: Danio rerio; experiment: Toxicity in wild type zebrafish embryos assessed as growth retardation at 20 ug/ml treated for 96 hrs post fertilization starting from 6 hrs post fertilization by inverted microscopic analysis relative to control; type: organism-based; details: in vivo
[11] = species: Danio rerio; experiment: Toxicity in wild type zebrafish embryos assessed as eyes at 10 ug/ml treated for 96 hrs post fertilization starting from 6 hrs post fertilization by inverted microscopic analysis relative to control; type: organism-based; details: in vivo
[12] = species: Danio rerio; experiment: Toxicity in wild type zebrafish embryos assessed as blood circulation at 25 ug/ml treated for 96 hrs post fertilization starting from 6 hrs post fertilization by inverted microscopic analysis relative to control; type: organism-based; details: in vivo
[13] = species: Danio rerio; experiment: Toxicity in wild type zebrafish embryos assessed as heart beat at 25 ug/ml treated for 96 hrs post fertilization starting from 6 hrs post fertilization by inverted microscopic analysis relative to control; type: organism-based; details: in vivo
[14] = species: Danio rerio; experiment: Toxicity in wild type zebrafish embryos assessed as blood circulation at 5 ug/ml treated for 96 hrs post fertilization starting from 6 hrs post fertilization by inverted microscopic analysis relative to control; type: organism-based; details: in vivo
[15] = test system: Danio rerio; experiment: Toxicity in wild type zebrafish embryos assessed as yolk edema at 15 ug/ml treated for 96 hrs post fertilization starting from 6 hrs post fertilization by inverted microscopic analysis relative to control; type: organism-based; details: in vivo
[16] = species: Danio rerio; experiment: Toxicity in wild type zebrafish embryos assessed as normal embryo at 10 ug/ml treated for 96 hrs post fertilization starting from 6 hrs post fertilization by inverted microscopic analysis relative to control; type: organism-based; details: in vivo
[17] = species: Danio rerio; experiment: Toxicity in wild type zebrafish embryos assessed as otoliths at 20 ug/ml treated for 96 hrs post fertilization starting from 6 hrs post fertilization by inverted microscopic analysis relative to control; type: organism-based; details: in vivo
[18] = species: Danio rerio; experiment: Toxicity in wild type zebrafish embryos assessed as notochord at 25 ug/ml treated for 96 hrs post fertilization starting from 6 hrs post fertilization by inverted microscopic analysis relative to control; type: organism-based; details: in vivo
[19] = species: Danio rerio; experiment: Toxicity in wild type zebrafish embryos assessed as blood circulation at 20 ug/ml treated for 96 hrs post fertilization starting from 6 hrs post fertilization by inverted microscopic analysis relative to control; type: organism-based; details: in vivo
[20] = test system: Melanocyte; experiment: Cytotoxicity against wild type zebrafish embryo melanocytes assessed as size of melanocyte at to 25 ug/ml treated for 72 hrs post fertilization starting from 6 to 24 hrs post fertilization; type: cell-based, Danio rerio
[21] = species: Danio rerio; experiment: Toxicity in wild type zebrafish embryos assessed as normal embryo at 50 ug/ml treated for 96 hrs post fertilization starting from 6 hrs post fertilization by inverted microscopic analysis relative to control; type: organism-based; details: in vivo
[22] = species: Danio rerio; experiment: Toxicity in wild type zebrafish embryos assessed as notochord at 50 ug/ml treated for 96 hrs post fertilization starting from 6 hrs post fertilization by inverted microscopic analysis relative to control; type: organism-based; details: in vivo
[23] = species: Danio rerio; experiment: Anti-melanogenic activity in wild type zebrafish 24 hrs post fertilization embryos assessed as decrease in body pigmentation at 5 to 25 ug/ml after 48 hrs; type: functional, organism-based
[24] = species: Danio rerio; experiment: Toxicity in wild type zebrafish embryos assessed as teratogenic embryo at 25 ug/ml treated for 96 hrs post fertilization starting from 6 hrs post fertilization by inverted microscopic analysis relative to control; type: organism-based; details: in vivo
[25] = Toxicity in wild type zebrafish embryos assessed as dead embryo at 25 ug/ml treated for 96 hrs post fertilization starting from 6 hrs post fertilization by inverted microscopic analysis relative to control; type: organism-based, Danio rerio; details: in vivo, read-out: Activity
[26] = species: Danio rerio; experiment: Toxicity in wild type zebrafish embryos assessed as skeletal deformities at 50 ug/ml treated for 96 hrs post fertilization starting from 6 hrs post fertilization by inverted microscopic analysis relative to control; type: organism-based; details: in vivo
[27] = species: Danio rerio; experiment: Toxicity in wild type zebrafish embryos assessed as heart beat at 15 ug/ml treated for 96 hrs post fertilization starting from 6 hrs post fertilization by inverted microscopic analysis relative to control; type: organism-based; details: in vivo
[28] = species: Danio rerio; experiment: Toxicity in wild type zebrafish embryos assessed as notochord at 5 ug/ml treated for 96 hrs post fertilization starting from 6 hrs post fertilization by inverted microscopic analysis relative to control; type: organism-based; details: in vivo
[29] = species: Danio rerio; experiment: Toxicity in wild type zebrafish embryos assessed as otoliths at 50 ug/ml treated for 96 hrs post fertilization starting from 6 hrs post fertilization by inverted microscopic analysis relative to control; type: organism-based; details: in vivo
[30] = test system: Danio rerio; experiment: Toxicity in wild type zebrafish embryos assessed as yolk edema at 25 ug/ml treated for 96 hrs post fertilization starting from 6 hrs post fertilization by inverted microscopic analysis relative to control; type: organism-based; details: in vivo
[31] = species: Danio rerio; experiment: Toxicity in wild type zebrafish embryos assessed as notochord at 20 ug/ml treated for 96 hrs post fertilization starting from 6 hrs post fertilization by inverted microscopic analysis relative to control; type: organism-based; details: in vivo
[32] = test system: Neutrophil; experiment: Anti-melanogenic activity in mpx:GFP transgenic zebrafish 24 hrs post fertilization embryo neutrophils assessed as decrease in pigmentation at 25 ug/ml; type: functional, cell-based; details: Danio rerio
[33] = species: Danio rerio; experiment: Toxicity in wild type zebrafish embryos assessed as teratogenic embryo at 50 ug/ml treated for 96 hrs post fertilization starting from 6 hrs post fertilization by inverted microscopic analysis relative to control; type: organism-based; details: in vivo
[34] = species: Danio rerio; experiment: Toxicity in wild type zebrafish embryos assessed as eyes at 25 ug/ml treated for 96 hrs post fertilization starting from 6 hrs post fertilization by inverted microscopic analysis relative to control; type: organism-based; details: in vivo
[35] = species: Danio rerio; experiment: Toxicity in wild type zebrafish embryos assessed as teratogenic embryo at 10 ug/ml treated for 96 hrs post fertilization starting from 6 hrs post fertilization by inverted microscopic analysis relative to control; type: organism-based; details: in vivo
[36] = species: Danio rerio; experiment: Toxicity in wild type zebrafish embryos assessed as normal embryo at 5 ug/ml treated for 96 hrs post fertilization starting from 6 hrs post fertilization by inverted microscopic analysis relative to control; type: organism-based; details: in vivo
[37] = species: Danio rerio; experiment: Toxicity in wild type zebrafish embryos assessed as unhatched embryo at 20 ug/ml treated for 96 hrs post fertilization starting from 6 hrs post fertilization by inverted microscopic analysis relative to control; type: organism-based; details: in vivo

Row | Structure (SMILES) | Activity [1] | Activity [2] | Activity [3] | Activity [4] | Activity [7] | Activity [8] | Activity [9] | Activity [10] | Activity [11] | Activity [12] | Activity [13] | Activity [14] | Activity [16] | Activity [17] | Activity [18] | Activity [19] | Activity [24] | mortality at 25 ug/ml [25] | Activity [30] | Activity [34] | also measured
1 | O=c1cc(-c2ccccc2)c2ccc(O)cc2o1 | Non-Toxic | 0% | 100% | 0% | 0% | 100% | 0% | 0% | 0% | 0% | 0% | 0% | 100% | 0% | 0% | 0% | 0% | 0% | 0% | 0% | Activity [5]: 0%; mortality at 15 ug/ml [6]: 0%; Activity [15]: 0%; Activity [20]: Non-Toxic; Activity [21]: 100%; Activity [22]: 0%; Activity [23]: Active; Activity [26]: 0%; Activity [27]: 0%; Activity [28]: 0%; Activity [29]: 0%; Activity [31]: 0%; Activity [32]: Active; Activity [33]: 0%; Activity [35]: 0%; Activity [36]: 100%; Activity [37]: 0%
2 | Oc1ccc(O)cc1 [HYDROQUINONE] | 30% | 100% | 0% | 100% | 90% | 0% | 0% | 100% | 80% | 100% | 100% | 0% | 0% | 100% | 0% | 100% | 6.7% | 93.3% | 100% | 100% | Activity [21]: 0%; Activity [23]: Active; Activity [28]: 0%; Activity [31]: 0%; Activity [33]: 0%; Activity [35]: 36.7%; Activity [36]: 0%; Activity [37]: 100%
3 | O=c1cc(-c2ccccc2)c2c(O)cc(O)cc2o1 | Non-Toxic | 0% | 100% | 0% | 0% | 100% | 0% | 0% | 0% | 0% | 0% | 0% | 100% | 0% | 0% | 0% | 0% | 0% | 0% | 0% | Activity [5]: 0%; mortality at 15 ug/ml [6]: 0%; Activity [15]: 0%; Activity [20]: Non-Toxic; Activity [21]: 75%; Activity [22]: 0%; Activity [23]: Active; Activity [26]: 25%; Activity [27]: 0%; Activity [28]: 0%; Activity [29]: 0%; Activity [31]: 0%; Activity [32]: Active; Activity [33]: 25%; Activity [35]: 0%; Activity [36]: 100%; Activity [37]: 0%
4 | O=c1cc(CO)occ1O [KOJIC ACID] | Non-Toxic | 0% | – | – | – | 100% | – | – | – | 0% | 0% | – | – | – | 0% | – | 0% | 0% | 0% | 0% | –
